Source: PubChem BioAssay AID1259407 (Chemical Carcinogenesis Research Information System (CCRIS), 2018)
Activity calls are given as the source filed them. No rule for the calls is given here.

Test system: CCRIS mutagenicity, Ames/micronucleus/aberration tests
Experiment: CCRIS mutagenicity studies
[1] = Test System: AMES SALMONELLA TYPHIMURIUM, Strain/Indicator: TA98, Metabolic Activation: NONE, Method: PREINCUBATION
[2] = Test System: AMES SALMONELLA TYPHIMURIUM, Strain/Indicator: TA1535, Metabolic Activation: NONE, Method: PREINCUBATION
[3] = Test System: AMES SALMONELLA TYPHIMURIUM, Strain/Indicator: TA1537, Metabolic Activation: NONE, Method: PREINCUBATION
[4] = Test System: AMES SALMONELLA TYPHIMURIUM, Strain/Indicator: TA98, Metabolic Activation: NONE, Method: STANDARD PLATE
[5] = Test System: AMES SALMONELLA TYPHIMURIUM, Strain/Indicator: TA98, Metabolic Activation: RAT, LIVER, S-9, AROCLOR 1254, Method: STANDARD PLATE
[6] = Test System: AMES SALMONELLA TYPHIMURIUM, Strain/Indicator: TA100, Metabolic Activation: NONE, Method: STANDARD PLATE
[7] = Test System: AMES SALMONELLA TYPHIMURIUM, Strain/Indicator: TA100, Metabolic Activation: RAT, LIVER, S-9, AROCLOR 1254, Method: STANDARD PLATE
[8] = Test System: AMES SALMONELLA TYPHIMURIUM, Strain/Indicator: TA1535, Metabolic Activation: NONE, Method: STANDARD PLATE
[9] = Test System: AMES SALMONELLA TYPHIMURIUM, Strain/Indicator: TA1537, Metabolic Activation: NONE, Method: STANDARD PLATE

Question: CC(C)Br was tested. Which mutagenic call (End Point: In vitro micronucleus, Test System: Chinese Hamster Ovary (CHO-WBL) cells, Metabolic Activation: None) did it give?
Answer: Its mutagenic call is “inactive; negative”.

Question: And the mutagenic call [1]?
Answer: Its mutagenic call is “inactive; negative”.

Question: And the mutagenic call (Test System: AMES SALMONELLA TYPHIMURIUM, Strain/Indicator: TA98, Metabolic Activation: RAT LIVER S-9, PHENOBARBITAL AND BETA-NAPHTHOFLAVONE, Method: PREINCUBATION)?
Answer: Its mutagenic call is “inactive; negative”.

Question: And the mutagenic call (Test System: AMES SALMONELLA TYPHIMURIUM, Strain/Indicator: TA98, Metabolic Activation: RAT, LIVER, S-9, PHENOBARBITAL AND 5,6-BENZOFLAVONE, Method: PREINCUBATION)?
Answer: Its mutagenic call is “inactive; negative”.

Question: And the mutagenic call (Test System: AMES SALMONELLA TYPHIMURIUM, Strain/Indicator: TA100, Metabolic Activation: RAT, LIVER, S-9, PHENOBARBITAL AND 5,6-BENZOFLAVONE, Method: PREINCUBATION)?
Answer: Its mutagenic call is “active; positive”.

Question: And the mutagenic call [2]?
Answer: The mutagenic call was “active; positive”.

Question: What about the mutagenic call (Test System: AMES SALMONELLA TYPHIMURIUM, Strain/Indicator: TA1535, Metabolic Activation: RAT LIVER S-9, PHENOBARBITAL AND BETA-NAPHTHOFLAVONE, Method: PREINCUBATION) of the same molecule?
Answer: The mutagenic call was “active; positive”.

Question: And the mutagenic call (Test System: AMES SALMONELLA TYPHIMURIUM, Strain/Indicator: TA1535, Metabolic Activation: RAT, LIVER, S-9, PHENOBARBITAL AND 5,6-BENZOFLAVONE, Method: PREINCUBATION)?
Answer: The mutagenic call was “active; positive”.

Question: And the mutagenic call [3]?
Answer: The mutagenic call was “inactive; negative”.

Question: And the mutagenic call (Test System: AMES SALMONELLA TYPHIMURIUM, Strain/Indicator: TA1537, Metabolic Activation: RAT LIVER S-9, PHENOBARBITAL AND BETA-NAPHTHOFLAVONE, Method: PREINCUBATION)?
Answer: Its mutagenic call is “inactive; negative”.

Question: What about the mutagenic call (Test System: AMES SALMONELLA TYPHIMURIUM, Strain/Indicator: TA1537, Metabolic Activation: RAT, LIVER, S-9, PHENOBARBITAL AND 5,6-BENZOFLAVONE, Method: PREINCUBATION) of the same molecule?
Answer: Its mutagenic call is “inactive; negative”.

Question: And the mutagenic call (Test System: E. COLI, Strain/Indicator: WP2 UVRA, Metabolic Activation: NONE, Method: PREINCUBATION)?
Answer: The mutagenic call was “inactive; negative”.

Question: What about the mutagenic call (Test System: E. COLI, Strain/Indicator: WP2 UVRA, Metabolic Activation: RAT, LIVER, S-9, PHENOBARBITAL AND 5,6-BENZOFLAVONE, Method: PREINCUBATION) of the same molecule?
Answer: Its mutagenic call is “inactive; negative”.

Question: How did the mutagenic call (Test System: UDS RODENT HEPATOCYTES, Strain/Indicator: THY INCORP (NON-S-PHASE), Metabolic Activation: NONE, Method: AUTORADIOGRAPHY) turn out when CNc1ccc(Cl)cc1 was run?
Answer: The mutagenic call was “active; positive”.

Question: What does the source list for CC(=O)Oc1ccccc1C(=O)Oc1ccccc1C(=O)O?
Answer: mutagenic call (Test System: AMES SALMONELLA TYPHIMURIUM, Strain/Indicator: TA97, Metabolic Activation: NONE, Method: STANDARD PLATE): inactive; negative; mutagenic call (Test System: AMES SALMONELLA TYPHIMURIUM, Strain/Indicator: TA97, Metabolic Activation: RAT, LIVER, S-9, AROCLOR 1254, Method: STANDARD PLATE): inactive; negative; mutagenic call [4]: inactive; negative; mutagenic call [5]: inactive; negative; mutagenic call [6]: inactive; negative; mutagenic call [7]: inactive; negative; mutagenic call [8]: inactive; negative; mutagenic call (Test System: AMES SALMONELLA TYPHIMURIUM, Strain/Indicator: TA1535, Metabolic Activation: RAT, LIVER, S-9, AROCLOR 1254, Method: STANDARD PLATE): inactive; negative; mutagenic call [9]: inactive; negative; mutagenic call (Test System: AMES SALMONELLA TYPHIMURIUM, Strain/Indicator: TA1537, Metabolic Activation: RAT, LIVER, S-9, AROCLOR 1254, Method: STANDARD PLATE): inactive; negative; mutagenic call (Test System: AMES SALMONELLA TYPHIMURIUM, Strain/Indicator: TA1538, Metabolic Activation: NONE, Method: STANDARD PLATE): inactive; negative; mutagenic call (Test System: AMES SALMONELLA TYPHIMURIUM, Strain/Indicator: TA1538, Metabolic Activation: RAT, LIVER, S-9, AROCLOR 1254, Method: STANDARD PLATE): inactive; negative

Question: With CC(C)(c1ccc(OCC(O)CO)cc1)c1ccc(OCC(O)CO)cc1 (stereo unspecified) as the molecule, how does the mutagenic call [4] read?
Answer: The mutagenic call was “inactive; negative”.

Question: What about the mutagenic call (Test System: AMES SALMONELLA TYPHIMURIUM, Strain/Indicator: TA98, Metabolic Activation: RAT LIVER S-9, PHENOBARBITAL/METHYLCHOLANTHRENE (4%), Method: STANDARD PLATE) of the same molecule?
Answer: The mutagenic call was “inactive; negative”.

Question: And the mutagenic call [6]?
Answer: The mutagenic call was “inactive; negative”.

Question: What about the mutagenic call (Test System: AMES SALMONELLA TYPHIMURIUM, Strain/Indicator: TA100, Metabolic Activation: RAT LIVER S-9, PHENOBARBITAL/METHYLCHOLANTHRENE (4%), Method: STANDARD PLATE) of the same molecule?
Answer: The mutagenic call was “inactive; negative”.

Question: What about the mutagenic call [8] of the same molecule?
Answer: The mutagenic call was “inactive; negative”.

Question: And the mutagenic call (Test System: AMES SALMONELLA TYPHIMURIUM, Strain/Indicator: TA1535, Metabolic Activation: RAT LIVER S-9, PHENOBARBITAL/METHYLCHOLANTHRENE (10%), Method: STANDARD PLATE)?
Answer: The mutagenic call was “inactive; negative”.

Question: What about the mutagenic call [9] of the same molecule?
Answer: The mutagenic call was “inactive; negative”.

Question: And the mutagenic call (Test System: AMES SALMONELLA TYPHIMURIUM, Strain/Indicator: TA1737, Metabolic Activation: RAT LIVER S-9, PHENOBARBITAL/METHYLCHOLANTHRENE (10%), Method: STANDARD PLATE)?
Answer: The mutagenic call was “inactive; negative”.

Question: Which mutagenic call (Test System: CHINESE HAMSTER V-79, Strain/Indicator: V-79/6-THIOGUANINE, Metabolic Activation: NONE, Method: STANDARD PLATE) does the source give for Oc1c(Cl)cc(Cl)c(Cl)c1O here?
Answer: The mutagenic call was “active; positive”.

Question: And the mutagenic call (Test System: CHINESE HAMSTER V-79, Strain/Indicator: V-79/6-THIOGUANINE, Metabolic Activation: PRIMARY RAT HEPATOCYTES, Method: STANDARD PLATE)?
Answer: The mutagenic call was “inactive; negative”.

Question: Nc1ccc(/C=C/c2ccc(Cl)cc2)cc1 was tested. Which mutagenic call (Test System: AMES SALMONELLA TYPHIMURIUM, Strain/Indicator: TA98(1,8-DNP6), Metabolic Activation: NONE, Method: STANDARD PLATE) did it give?
Answer: Its mutagenic call is “inactive; negative”.

Question: What about the mutagenic call (Test System: AMES SALMONELLA TYPHIMURIUM, Strain/Indicator: TA98(1,8-DNP6), Metabolic Activation: S-9, Method: STANDARD PLATE) of the same molecule?
Answer: The mutagenic call was “active; positive”.

Question: What about the mutagenic call [4] of the same molecule?
Answer: Its mutagenic call is “inactive; negative”.

Question: What about the mutagenic call [5] of the same molecule?
Answer: Its mutagenic call is “active; positive”.

Question: And the mutagenic call (Test System: AMES SALMONELLA TYPHIMURIUM, Strain/Indicator: TA98, Metabolic Activation: S-9, Method: STANDARD PLATE)?
Answer: The mutagenic call was “active; positive”.

Question: And the mutagenic call [6]?
Answer: Its mutagenic call is “inactive; negative”.

Question: And the mutagenic call [7]?
Answer: The mutagenic call was “active; positive”.

Question: And the mutagenic call (Test System: AMES SALMONELLA TYPHIMURIUM, Strain/Indicator: TA100, Metabolic Activation: S-9, Method: STANDARD PLATE)?
Answer: The mutagenic call was “active; positive”.

Question: CCCCCCCCOP(=O)(OCCCCCCCC)OCCCCCCCC was tested. Which mutagenic call (Test System: AMES SALMONELLA TYPHIMURIUM, Strain/Indicator: TA98, Metabolic Activation: HAMSTER, LIVER, S-9, AROCLOR 1254 (10%), Method: PREINCUBATION) did it give?
Answer: The mutagenic call was “inactive; negative”.

Question: And the mutagenic call [1]?
Answer: The mutagenic call was “inactive; negative”.

Question: And the mutagenic call (Test System: AMES SALMONELLA TYPHIMURIUM, Strain/Indicator: TA98, Metabolic Activation: RAT, LIVER, S-9, AROCLOR 1254 (10%), Method: PREINCUBATION)?
Answer: The mutagenic call was “inactive; negative”.

Question: And the mutagenic call (Test System: AMES SALMONELLA TYPHIMURIUM, Strain/Indicator: TA100, Metabolic Activation: HAMSTER, LIVER, S-9, AROCLOR 1254 (10%), Method: PREINCUBATION)?
Answer: The mutagenic call was “inactive; negative”.

Question: And the mutagenic call (Test System: AMES SALMONELLA TYPHIMURIUM, Strain/Indicator: TA100, Metabolic Activation: NONE, Method: PREINCUBATION)?
Answer: Its mutagenic call is “inactive; negative”.

Question: And the mutagenic call (Test System: AMES SALMONELLA TYPHIMURIUM, Strain/Indicator: TA100, Metabolic Activation: RAT, LIVER, S-9, AROCLOR 1254 (10%), Method: PREINCUBATION)?
Answer: The mutagenic call was “inactive; negative”.

Question: What about the mutagenic call (Test System: AMES SALMONELLA TYPHIMURIUM, Strain/Indicator: TA1535, Metabolic Activation: HAMSTER, LIVER, S-9, AROCLOR 1254 (10%), Method: PREINCUBATION) of the same molecule?
Answer: The mutagenic call was “inactive; negative”.

Question: And the mutagenic call [2]?
Answer: The mutagenic call was “inactive; negative”.

Question: What about the mutagenic call (Test System: AMES SALMONELLA TYPHIMURIUM, Strain/Indicator: TA1535, Metabolic Activation: RAT, LIVER, S-9, AROCLOR 1254 (10%), Method: PREINCUBATION) of the same molecule?
Answer: The mutagenic call was “inactive; negative”.

Question: And the mutagenic call (Test System: AMES SALMONELLA TYPHIMURIUM, Strain/Indicator: TA1537, Metabolic Activation: HAMSTER, LIVER, S-9, AROCLOR 1254 (10%), Method: PREINCUBATION)?
Answer: The mutagenic call was “inactive; negative”.

Question: And the mutagenic call [3]?
Answer: The mutagenic call was “inactive; negative”.

Question: What about the mutagenic call (Test System: AMES SALMONELLA TYPHIMURIUM, Strain/Indicator: TA1537, Metabolic Activation: RAT, LIVER, S-9, AROCLOR 1254 (10%), Method: PREINCUBATION) of the same molecule?
Answer: Its mutagenic call is “inactive; negative”.
